Data set [1] deals with IL-13 induced pSTAT6 in lung tissue. The data set can be described thus: Murine model of IL-13 induced pSTAT6 induction in lung tissue. It is filed as in vivo, mouse. Conditions: Balb/c mice, 1 mg/mL, 50 μL oral aspiration; IL-13 challenge 4 hours after compound; lung homogenate. As for the experimental part:
(§1) Assay 3: Murine (Mouse) Model of IL-13 Induced pSTAT6 Induction in Lung Tissue
IL-13 binds to cell surface receptors activating members of the Janus family of kinases (JAK) which then phosphorylate STAT6 and subsequently activates further transcription pathways. In the described model, a dose of IL-13 was delivered locally into the lungs of mice to induce the phosphorylation of STAT6 (pSTAT6) which is then measured as the endpoint.
Activity in the model is evidenced by a decrease in the level of pSTAT6 present in the lungs of treated animals at 5 hours compared to the vehicle treated, IL-13 challenged control animals. The difference between the control animals which were vehicle-treated, IL-13 challenged and the control animals which were vehicle-treated, vehicle challenged dictated the 0% and 100% inhibitory effect, respectively, in any given experiment.

Data set [2] can be described thus: Lung and plasma drug concentration in the murine IL-13 pSTAT6 model. Conditions: mouse, other: oral aspiration, 50 µg/mouse; for Kp at 5 h: Balb/c, lung ng/g to plasma ng/mL at 5 hours, mice, oral aspiration, read-out: Lung to Plasma ratio at 5 hr; for concentration at 5 h: Balb/c mice, 1 mg/mL, 50 μL oral aspiration, 5 hr post dose. It is filed as in vivo. As for the experimental part: as §1
Adult Balb/c mice from Harlan were used in the assay. […] Animals were placed in lateral recumbency post dose and monitored for full recovery from anesthesia before being returned to their home cage. Four hours later, animals were once again briefly anesthetized and challenged with either vehicle or IL-13 (0.03 μg total dose delivered, 50 μL total volume) via oral aspiration before being monitored for recovery from anesthesia and returned to their home cage. One hour after vehicle or IL-13 administration, whole blood and lungs were collected for both pSTAT6 detection in lung homogenates using a Perkin Elmer AlphaLISA® SureFire® Ultra™ HV p-STAT6 (Tyr641) assay kit and for total drug concentration analysis in both lung and plasma. Blood samples were centrifuged (Eppendorf centrifuge, 5804R) for 4 minutes at approximately 12,000 rpm at 4° C. to collect plasma. […] Plasma and lung levels of test compound were determined by LC-MS analysis against analytical standards constructed into a standard curve in the test matrix. A lung to plasma ratio was determined as the ratio of the lung concentration in ng/g to the plasma concentration in ng/mL at 5 hours.

Data set [3] is described as follows: Pharmacokinetics in plasma and lung in mouse. The conditions noted are these: BALB/c mice, single oral aspiration, 0.2 mg/mL, 50 μL; for Kp / AUC(0-t): mouse, other: oral aspiration into the trachea, 10 µg/mouse; for Kp: lung / plasma, read-out: Lung Tissue:Plasma AUC ratio; for AUC(0-t): plasma, read-out: Plasma AUC(0-24). It is filed as in vivo. As for the experimental part: Assay 6: Pharmacokinetics in Plasma and Lung in Mouse
Plasma and lung concentrations of test compounds and ratios thereof were determined in the following manner. BALB/c mice from Charles River Laboratories were used in the assay. Test compounds were individually formulated in 20% propylene glycol in pH 4 citrate buffer at a concentration of 0.2 mg/mL and 50 μL of the dosing solution was introduced into the trachea of a mouse by oral aspiration. At various time points (typically 0.167, 2, 6, 24 hr) post dosing, blood samples were removed via cardiac puncture and intact lungs were excised from the mice.

The test system of data set [4] is IFNγ stimulated STAT1 phosphorylation in CD14+ monocytes. As to the kind of experiment: Cellular JAK potency assay: inhibition of IFNγ-induced pSTAT1. Conditions: Homo sapiens, Monocyte, 0.5 h, read-out: pIC50, inhibition of IFNγ-induced pSTAT1 (converted). It is filed as cell-based. From the text: Data are expressed as pIC50 (negative decadic logarithm IC50) values.

The subject of data set [5] is IL-12 stimulated STAT4 phosphorylation in CD3+ T cells. The data set can be described thus: Cellular JAK potency assay: inhibition of IL-12-induced pSTAT4. It is filed as cell-based. Conditions: Homo sapiens, T-cell, 0.5 h, read-out: pIC50, inhibition of IL-12-induced pSTAT4 (converted). The procedure:
Assay 16: Cellular JAK Potency Assay: Inhibition of IL-12-Induced pSTAT4
The potency of test compounds for inhibition of interleukin-12 (IL-12) stimulated STAT4 phosphorylation was measured in CD3-positive (CD3+) T cells derived from human whole blood (Stanford Blood Center) using flow cytometry. Because IL-12 signals through JAK, this assay provides a measure of JAK cellular potency.
CD3+ T cells were identified using a phycoerythrin (PE) conjugated anti-CD3 antibody (clone UCHT1, BD Biosciences), and an Alexa Fluor 647 conjugated anti-pSTAT4 antibody (clone 38/p-Stat4, BD Biosciences) was used to detect STAT4 phosphorylation.
Human peripheral blood mononuclear cells (PBMC) were isolated from human whole blood of healthy donors using a ficoll gradient. […] After incubation, cells were washed twice in FACS buffer before being analyzed using a MACSQuant flow cytometer (Miltenyi). To determine the inhibitory potency of the test compound, the median fluorescent intensity (MFI) of pSTAT4 was measured in CD3+ T cells. IC50 values were determined from analysis of the inhibition curves of MFI vs compound concentration. Data are expressed as pIC50 (negative decadic logarithm IC50) values.

Where [6] appears, read: lung, read-out: Lung Concentration (ng/g) at 5 hr.
Where [7] appears, read: plasma, read-out: Plasma Concentration (ng/mL) at 5 hr.

Where two headings read alike, the source gives them in different places.

As to `CCCN1Cc2[nH]c(-c3n[nH]c4cc(-c5ccc(O)cc5CC)ccc34)nc2C[C@H]1C(=O)N1CCN(CCO)CC1` [Compound 1, (S)-(2-(6-(2-ethyl-4-hydroxyphenyl)-1H-indazol-3-yl)-5-propyl-4,5,6,7-tetrahydro-3H-imidazo[4,5-c]pyridin-6-yl)(4-(2-hydroxyethyl)piperazin-1-yl)methanone], the “pSTAT6 inhibition at 5 hours” value in data set [1] was 67%. Also, the Kp at 5 h in data set [2] was determined as 1260. In data set [2] (setting [6]), the concentration at 5 h was found to be 13000 ± 5720 ng/g. In data set [2] (setting [7]), the concentration at 5 h amounted to 10.3 ± 3.9 ng/mL. In addition, in data set [3], the “Lung Tissue AUC(0-24)” value is 64.6 µg·h/g, the Kp was 111 and the AUC(0-t) came out at 581 ng·h/mL. The IC50 in data set [4] (CD14+ monocytes, IFNγ 0.6 ng/mL, 30 min, flow cytometry) is 31.6 nM. Further, the IC50 in data set [5] (CD3+ T cells, IL-12 10 ng/mL, 30 min, flow cytometry) is 631 nM.
On to `CCCN1Cc2[nH]c(-c3n[nH]c4cc(-c5ccc(O)cc5CC)ccc34)nc2C[C@H]1C(=O)N1C[C@@H]2C[C@H]1CN2C` [Compound 2, ((S)-2-(6-(2-ethyl-4-hydroxyphenyl)-1H-indazol-3-yl)-5-propyl-4,5,6,7-tetrahydro-3H-imidazo[4,5-c]pyridin-6-yl)((1S,4S)-5-methyl-2,5-diazabicyclo[2.2.1]heptan-2-yl)methanone], for which, in data set [1], the “pSTAT6 inhibition at 5 hours” value is on record as 72%. For the same compound, the Kp at 5 h in data set [2] amounted to 1340. For the same compound, the figures for the concentration at 5 h in data set [2] (setting [6]) and in data set [2] (setting [7]) were 23400 ± 12500 ng/g and 17.5 ± 25 ng/mL, respectively.
On to `CCc1cc(O)ccc1-c1ccc2c(-c3nc4c([nH]3)CN(C(C)C)[C@H](C(=O)N3CCCN(C)CC3)C4)n[nH]c2c1` [Compound 4, (S)-(2-(6-(2-ethyl-4-hydroxyphenyl)-1H-indazol-3-yl)-5-isopropyl-4,5,6,7-tetrahydro-3H-imidazo[4,5-c]pyridin-6-yl)(4-methyl-1,4-diazepan-1-yl)methanone], for which, in data set [1], the “pSTAT6 inhibition at 5 hours” value came to 67%. Further, the Kp at 5 h in data set [2] amounted to 788. For the same compound, the values for the concentration at 5 h in data set [2] (setting [6]) and in data set [2] (setting [7]) were 17400 ± 6620 ng/g and 22 ± 23 ng/mL, respectively. In addition, the IC50 is 50.1 nM in data set [4] and 1000 nM in data set [5].
Take `CCc1cc(O)ccc1-c1ccc2c(-c3nc4c([nH]3)CN(C)[C@H](C(=O)N3CCN(CCO)C[C@H]3C)C4)n[nH]c2c1` [Compound 5, ((S)-2-(6-(2-ethyl-4-hydroxyphenyl)-1H-indazol-3-yl)-5-methyl-4,5,6,7-tetrahydro-3H-imidazo[4,5-c]pyridin-6-yl)((R)-4-(2-hydroxyethyl)-2-methylpiperazin-1-yl)methanone]: the “pSTAT6 inhibition at 5 hours” value in data set [1] was found to be 73%. The Kp at 5 h in data set [2] worked out at 418. In data set [2] (setting [6]), the concentration at 5 h was found to be 5440 ± 1860 ng/g. Further, the concentration at 5 h in data set [2] (setting [7]) worked out at 13 ± 3.7 ng/mL. Further, in data set [3], the “Lung Tissue AUC(0-24)” value stood at 29.9 µg·h/g, the Kp was 49.9 and the AUC(0-t) is 599 ng·h/mL.
On to `CCc1cc(O)ccc1-c1ccc2c(-c3nc4c([nH]3)CN(C(C)C)[C@H](C(=O)N3CC[C@H](N(C)C)C3)C4)n[nH]c2c1` [Compound 6, ((S)-3-(dimethylamino)pyrrolidin-1-yl)((S)-2-(6-(2-ethyl-4-hydroxyphenyl)-1H-indazol-3-yl)-5-isopropyl-4,5,6,7-tetrahydro-3H-imidazo[4,5-c]pyridin-6-yl)methanone], for which, in data set [1], the “pSTAT6 inhibition at 5 hours” value stood at 37%. For the same compound, the Kp at 5 h in data set [2] stood at 1030. Also, the values for the concentration at 5 h in data set [2] (setting [6]) and in data set [2] (setting [7]) were 11600 ± 4680 ng/g and 11.3 ± 5.7 ng/mL, respectively.

For the origin of these results see patent US10836763B2, “5 to 7 membered heterocyclic amides as JAK inhibitors” (priority 2018, dated 2020).
